Experimental data taken from patent US8329141B2, “Locoregional internal radionuclide ablation of abnormal tissues” (Board of Regents, The University of Texas System, priority 2004, dated 2012).

What was measured:
CSF proteins = test: Binding to CSF proteins (Centrifree filter separation); type: in vitro ADME, human (patients); conditions: 0.2, 0.5 or 1 μCi added to diluted CSF, 20 minutes; physiologic range, all concentrations tested
Method: To test the hypothesis that local sequestration of ^111In—Cl is due to protein binding, both ^111In—Cl and YCl3 were tested for binding to CSF and serum proteins. Serum proteins were obtained from residual baseline serum and CSF proteins were obtained from patients participating in other research protocols who had consented to blood sampling. To determine the level of ^111In—Cl protein binding, 0.2, 0.5, or 1 μCi of ^111In—Cl was added to diluted CSF (0.125 or 0.5) or diluted serum protein (0.125 and 0.25) and incubated for 20 minutes. To determine the level of YCl3 protein binding, 0.2, 0.5, or 1 μCi of YCl3 was added to diluted CSF (0.063 or 0.5) or diluted serum protein (0.063 and 0.375), and incubated for 20 minutes. After incubation, free radiopharmaceuticals were separated from protein bound ^111In—Cl or YCl3 using Amicon Centrifree Micropartition filters in a single centrifugation step at 3000 g for 15 minutes according to manufacturer's instructions (Amicon, Beverly, Mass.). The percent binding of YCl3 or ^111In—Cl to the CSF or serum protein was then calculated. As shown in FIG. 6 and FIG. 7 respectively, both YCl3 and ^111In—Cl bind avidly to CSF and serum protein within the physiologic range (a dilution factor between 0.2 and 0.6) at all concentrations tested. At room temperature, both YCl3 and ^111In—Cl have greater than 95% binding to serum proteins.

serum proteins = test: Binding to serum proteins (Centrifree filter separation); type: in vitro ADME, human (patients); conditions: 0.2, 0.5 or 1 μCi added to diluted serum protein, 20 minutes; physiologic range, all concentrations tested
Method: To test the hypothesis that local sequestration of ^111In—Cl is due to protein binding, both ^111In—Cl and YCl3 were tested for binding to CSF and serum proteins. Serum proteins were obtained from residual baseline serum and CSF proteins were obtained from patients participating in other research protocols who had consented to blood sampling. To determine the level of ^111In—Cl protein binding, 0.2, 0.5, or 1 μCi of ^111In—Cl was added to diluted CSF (0.125 or 0.5) or diluted serum protein (0.125 and 0.25) and incubated for 20 minutes. To determine the level of YCl3 protein binding, 0.2, 0.5, or 1 μCi of YCl3 was added to diluted CSF (0.063 or 0.5) or diluted serum protein (0.063 and 0.375), and incubated for 20 minutes. After incubation, free radiopharmaceuticals were separated from protein bound ^111In—Cl or YCl3 using Amicon Centrifree Micropartition filters in a single centrifugation step at 3000 g for 15 minutes according to manufacturer's instructions (Amicon, Beverly, Mass.). The percent binding of YCl3 or ^111In—Cl to the CSF or serum protein was then calculated. As shown in FIG. 6 and FIG. 7 respectively, both YCl3 and ^111In—Cl bind avidly to CSF and serum protein within the physiologic range (a dilution factor between 0.2 and 0.6) at all concentrations tested. At room temperature, both YCl3 and ^111In—Cl have greater than 95% binding to serum proteins. […]

[1] = In vivo local sequestration at the injection site by serial scintigrams (intramuscular or intratumoral injection); parameters: species or system Fischer rats
Method: To further study the localization of unsealed radiopharmaceuticals after injection, in vivo imaging studies were carried out comparing ^111In DTPA (In-DTPA) (negative control) and Indium-111-Iron Macroaggregate (^111In-IMA) (positive control) to ^111In—Cl. ^111In emits gamma rays that can be detected using a gamma camera. ^111In-IMA was generated according to methods disclosed in U.S. Ser. No. 10/724,027, incorporated herein by reference. Each radiopharmaceutical was administered by intramuscular injection into the thigh muscle of Fischer rats which weighed approximately 200 grams. Two different doses of ^111In—Cl were administered to the rats, 0.4 and 0.8 mCi in 0.2 ml saline. Distribution of the ^111In—Cl was determined through serial scintigrams. […] In comparison, when ^111In-IMA was administered to rats, consistent retention (84%) of the ^111In-IMA was found 70 hours after administration (FIG. 8). Persistent intramuscular localization of ^111In—Cl was also found in rats for both dose levels of ^111In—Cl, with over 50% of the injected ^111In—Cl remaining in the injection site after three days.
To investigate whether the addition of free iron to radionuclides would increase the locoregional retention of various radionuclides, admixtures of ^67Ga-citrate, YCl3, or ^111In—Cl, were prepared with FeCl3.6H2O at 1-5 mg Fe/ml. Each radionuclide combination/admixture was administered either by intramuscular (IM) injection into the thigh muscle of the left leg (0.1-1.0 mCi) or by intratumoral (IT) injection into a tumor in the right leg (0.4-5.0 mCi) of Fischer rats. Distribution of the radionuclide was determined through serial scintigrams. Whole body images were acquired with a Siemens M-CAM camera using respective photo peaks of Ga-67, Tl-201 (for Y-90), or In-111, and 15-20% windows in photo energy. The typical imaging time was 0.5 to 5 minutes. A respective standard was present in the field of view (0.1-0.5 mCi), and used for image quantification by comparing images with the standard and normalizing the initial injection time as 100%. The Fe content in each combination/admixture was 1 mg in the total injectate.

[2] = Biodistribution and projected human radiation dosimetry after intravenous or intramuscular injection; type: in vivo, female Fisher rats; conditions: for human dosimetry estimate, kidney / human dosimetry estimate, red marrow: from rat biodistribution
Method: To evaluate the radiation toxicity of YCl3 after intravenous or intramuscular injection, parallel experiments were performed to evaluate the biodistribution and projected human radiation dosimetry of both ^111In—Cl and YCl3. The experiments used three female Fisher rats (140-160 grams) for each set of injections. Each rat was injected intravenously, or was injected intramuscularly in the right thigh, with 0.05 mCi of YCl3 or ^111In—Cl (with no carrier added) in 0.1 ml saline (pH 5-6). The effect of initial exposure of the radiopharmaceuticals to interstitial fluid was estimated by serum protein binding experiments using Millipore Centrifree filters as set forth in Example 2. Organs including the right and left femur, as well as the right and left thigh muscles, were harvested from each rat 7 days after injection. Human dosimetry for each radiopharmaceutical was constructed using established anthropomorphic models.

[3] = intravenous (Hirano et al. 1993); cited from earlier work
[4] = intratracheal instillation (Hirano et al. 1990); cited from earlier work

[Cl][90Y]([Cl])[Cl] [YCl3, Yttrium-90 chloride]
binding to CSF (CSF proteins): bind avidly
binding to serum protein (serum proteins): bind avidly
retention time with free iron ([1]; admixture with FeCl3.6H2O, intramuscular or intratumoral injection): Increase in the retention time
time over which cleared from the injection site ([1]; intramuscular injection in rats, without free iron, FIG. 15): approximately 20 hours
retention in the injection site ([1]; intramuscular injection, without free iron): not locally sequestered
skeletal distribution ([2]; estimated from the left femur (opposite to the injection site)): about 16%
radiation uptake in the right thigh muscle ([2]; intramuscular injection in right thigh): high
radiation uptake in right femur versus contralateral organ ([2]; intramuscular injection in right thigh, decreasing over time to): 3 times higher
radiation uptake in right femur versus contralateral organ ([2]; intramuscular injection in right thigh, initial): 6 times higher
human dosimetry estimate, kidney ([2]; intramuscular): 1.47 cGy/mCi
human dosimetry estimate, red marrow ([2]; intramuscular): 0.65 cGy/mCi
organs with the highest uptake ([2]; intravenous injection, 0.05 mCi in 0.1 ml saline): spleen, liver, and kidney
human dosimetry estimate, kidney ([2]; intravenous): 13.1 cGy/mCi
human dosimetry estimate, red marrow ([2]; intravenous): 5.77 cGy/mCi
formation of colloidal material in blood plasma [3]: dose-dependent formation of colloidal material
primary target organs [3]: liver and spleen
pulmonary retention half-life [4]: 169 days
